Experimental data from patent US20040029938A1, “Medicaments” (priority 2000, published 2004).

Tested on: inducible nitric oxide synthase (INOS)
Experiment: LPS-induced INOS activity in J774 cells (DAF-2 fluorescence)
Format: cell-based, mouse
Conditions: pre-treatment 6 hours before and 24 hours after LPS (1 μg/ml), sub-nanomolar-nanomolar concentrations, FIG. 1
Experimental: In this assay system, lipopolysaccharide (LPS) was used to induce the expression of INOS in the mouse macrophage cell line, J774. […] This reduction in INOS activity correlated with a reduction in LPS-induced INOS mRNA expression.
Specifically, LPS-induced INOS activity was measured using the following assay conditions. J774 cells were seeded at a density of […] per well, in a black, clear-bottomed, 96 well plate, 24hours prior to use. The cell culture and the drug dilutions were carried out in complete media, which consisted of DMEM (Dulbecco's modification of Eagle's medium) containing foetal calf serum (10%), glutamine (2 mM), penicillin (100 μ/ml) and streptomycin (100 μg/ml). The J774 cells were pre-treated with the PPAR delta activators A and B, or vehicle, for 6 hours prior to, and for 24 hours subsequent to the addition of LPS (typically, a concentration of 1 μg/ml of LPS was used). Twenty-four hours after the addition of LPS, INOS activity was measured by the following method. […] After incubation at 37° C. for 3 hours, fluorescence from each well was measured at an excitation wavelength of 485 nm, and an emission wavelength of 530 nm. […]
LPS to induce INOS activity, in the presence and absence of PPAR delta activators, was then calculated. […]

| SMILES | inhibition of LPS-induced INOS activity |
| --- | --- |
| Cc1cc(SCc2sc(-c3ccc(C(F)(F)F)cc3)nc2C)ccc1OCC(=O)O [Compound A, 2-{2-methyl-4-[({4-methyl-2-[4-(trifluoromethyl)phenyl]-1,3-thiazol-5-yl}methyl)sulfanyl]phenoxy}acetic acid] | marked inhibition |
| Cc1cc(SCc2sc(-c3ccc(C(F)(F)F)c(F)c3)nc2C)ccc1OCC(=O)O [Compound B, 2-{2-methyl-4-[({4-methyl-2-[3-fluoro-4-(trifluoromethyl)phenyl]-1,3-thiazol-5-yl}methyl)sulfanyl]phenoxy}acetic acid] | marked inhibition |
